Reference: publication doi:10.64898/2025.12.30.696991 (bioRxiv, 2026)
Where two headings read alike, the source gives them in different places.

How the values were obtained:
[1] = test system: E. coli (TOP10); experiment: Antibiotic disc inhibition zone on Mueller-Hinton agar; assay type: cell-based, Escherichia coli; settings: experiment performed twice
Protocol: Susceptible (ATCC 700720) and MDR (ATCC 700408) strains of S. enterica serovar Typhimurium were obtained from American Type Culture Collection (ATCC Manassas, VA) and cultured in nutrient broth (BD Difco, Detroit, MA). Murine macrophage cell line RAW 264.7 (ATCC TIB-71) was maintained in Dulbecco's modified Eagle's medium (DMEM) (GIBCO, Invitrogen, Carlsbad, CA) supplemented with 10% fetal bovine serum (FBS) (GIBCO) and 1% penicillin-streptomycin (P/S) (GIBCO). Cells were cultured at 37°C in a 5% CO2 atmosphere and used up to passage 10 once received from ATCC. Susceptible and MDR activity of S. Typhimurium was confirmed on Mueller-Hinton agar (BD Difco, Detroit, MA) plates with antibiotic discs (Thermo Fisher Scientific, Waltham, MA) and compared to Escherichia coli (TOP10) and S. Typhimurium XEN-33 (Table 3).

[2] = test system: MDR S. Typhimurium (ATCC700408); experiment: as above; assay type: cell-based, Salmonella enterica serovar Typhimurium; settings: experiment performed twice
Protocol: (§1) Susceptible (ATCC 700720) and MDR (ATCC 700408) strains of S. enterica serovar Typhimurium were obtained from American Type Culture Collection (ATCC Manassas, VA) and cultured in nutrient broth (BD Difco, Detroit, MA). Murine macrophage cell line RAW 264.7 (ATCC TIB-71) was maintained in Dulbecco's modified Eagle's medium (DMEM) (GIBCO, Invitrogen, Carlsbad, CA) supplemented with 10% fetal bovine serum (FBS) (GIBCO) and 1% penicillin-streptomycin (P/S) (GIBCO). Cells were cultured at 37°C in a 5% CO2 atmosphere and used up to passage 10 once received from ATCC.

[3] = test system: Susc. S. Typhimurium (ATCC700720); experiment: as above; assay type: cell-based, Salmonella enterica serovar Typhimurium; settings: experiment performed twice
Protocol: as §1

[4] = test system: S. Typhimurium (XEN-33); experiment: as above; assay type: cell-based, Salmonella enterica serovar Typhimurium; settings: experiment performed twice
[5] = in vitro; assay type: cell-based; settings: read-out: LC50
Protocol: Cell proliferation and viability in the presence of the analogs was tested in the macrophage cell line RAW 264.7 using a 3-(4,5-dimethylthiazol-2-yl)-2,5-diphenyl-2H-tetrazolium bromide (MTT) assay. Cells were seeded at 3×10^4 cells/well in 96 well plates in DMEM (10% FBS, 1% pen/strep). […] DMSO vehicle was utilized as a control, as all the drugs were reconstituted from DMSO stocks. After 24 hr treatment, media was replaced with 100 μL of 0.6 mg/mL MTT solution and the cells were incubated at 37°C until formazan crystals formed. The MTT solution was then replaced with 100 μL of isopropanol, to dissolve the formazan crystals. Cell viability was determined by measuring absorbance at 560 nm of drug treated cells normalized to DMSO vehicle controls. The absorbance at 670 nm was used as a background correction. Cell viability was plotted against increasing drug concentration to obtain the 50% lethal concentration (LC50), defined as the drug concentration resulting in 50% cell viability.

[6] = test system: planktonic susceptible S. Typhimurium (ATCC 700720); experiment: Direct effect on planktonic susceptible bacteria (optical density 600 nm); assay type: cell-based, Salmonella enterica serovar Typhimurium; settings: Salmonella enterica
Protocol: (§2) A single colony of susceptible or MDR bacteria was inoculated into nutrient broth and incubated overnight at 37°C in an orbital shaker set at 200 rpm. The overnight culture was sub-cultured (1:100) in fresh medium to obtain log-phase bacterial growth after an additional 3 hr incubation at 37°C and further adjusted to obtain a bacterial stock solution with an absorbance value of 0.6 at 600 nm, equivalent to a concentration of 3×10^8 CFU/mL. The bacterial stock was diluted with nutrient broth to obtain 3×10^4 CFU/well in a 96 well plate. Next, 10 μL of each analog were added to yield a total volume of 100 μL /well with a final concentration of 20 μM. Drug-free and bacteria-free wells were used as controls. The plate was incubated at 37°C for 22 hr. Percent bacterial viability was determined using optical density measurements at 600 nm, subtracting out bacteria free absorbance (background) and normalizing to a DMSO vehicle control. Bacterial viability was plotted against increasing drug concentration to obtain the 50% minimum inhibitory concentration (MIC50), defined as the drug concentration resulting in 50% bacterial viability.

[7] = test system: intracellular susceptible S. Typhimurium (ATCC 700720); experiment: Intracellular gentamicin protection assay, susceptible S. Typhimurium in RAW 264.7 macrophages; assay type: cell-based, Salmonella enterica serovar Typhimurium; settings: for IC50: Salmonella enterica
Protocol: (§3) RAW 264.7 cells were seeded at 3×10^4 cells/well in a 96-well plate and maintained at 37°C for 20 hours. A single colony of susceptible or MDR S. Typhimurium was inoculated and cultured overnight in nutrient broth and diluted to obtain a log-phase culture stock with an adjusted optical density (OD600) of 0.6, equivalent to a concentration of 3×10^8 CFU/mL (determined by a prior colony forming units (CFU) assay). The bacterial stock solution was resuspended in antibiotic-free DMEM supplemented with 2% FBS and further diluted to obtain a bacterial concentration of 3×10^6 CFU/mL. Cell media was aspirated and replaced with 100 μL of bacteria culture in DMEM resulting in a multiplicity of infection (MOI) of 10. The cells underwent infection for two hours or 30 minutes at 37°C with susceptible or MDR bacteria, respectively. This differential infection incubation period was based on strain-specific infectivity potential. […] Media was aspirated from the wells and replaced with DMEM (2% FBS) containing 100 μg/mL gentamicin for one hour at 37°C to eliminate extracellular bacteria. Following this step, cells were washed once with media and treated for 22 hours with analogs at varying concentrations (0.1 – 5 μM) in DMEM (2% FBS, no pen/strep) containing 10 μg/mL gentamicin to suppress extracellular bacterial growth. AR-12 treated, uninfected, and DMSO-vehicle treated cells were included as controls. Post treatment, cells were washed with PBS and lysed with 0.1% Triton-X100, a concentration sufficient to disrupt host cells while preserving bacterial integrity. The lysates containing intracellular bacteria were serially diluted and enumerated by using drop-plate assay as described previously.([27]) Agar plates were incubated overnight at 37°C before CFU from each dilution were counted.

[8] = test system: intracellular MDR S. Typhimurium (ATCC 700408); experiment: Intracellular gentamicin protection assay, MDR S. Typhimurium in RAW 264.7 macrophages; assay type: cell-based, Salmonella enterica serovar Typhimurium
Protocol: as §3
Supplemental Figure 2: Evaluating lead compound efficacy against MDR S. Typhimurium. A) Schematic illustrating gentamicin protection assay. Day 0 RAW 264.7 macrophages are seeded into 96-well plate and STM culture is inoculated. Day 1: RAW 264.7 cells are infected with STM at an MOI of 10 for 30 min, washed, then treated with gentamicin for 1hr to remove extracellular bacteria. AR-12 analogs added to infected cells for 22hr incubation. Day 2: RAWs are washed, lysed, diluted and then dropped onto agar plates. Day 3: colony forming units (CFUs) counted. B) Dose effect curves of intracellular MDR S. Typhimurium viability from RAW 264.7 macrophages after 22hr treatment with hit compounds. CFUs normalized to untreated controls. Parental compound AR-12 included for comparison.

[9] = test system: planktonic MDR S. Typhimurium (ATCC 700408); experiment: Direct effect on planktonic MDR bacteria (optical density 600 nm); assay type: cell-based, Salmonella enterica serovar Typhimurium; settings: Salmonella enterica, Table 2, OD 600 nm
Protocol: as §2

Compound | Disc inhibition zone (diameter) [1] | Disc inhibition zone (diameter) [2] | Disc inhibition zone (diameter) [3] | Disc inhibition zone (diameter) [4] | also measured
C[C@H]1COc2c(N3CCN(C)CC3)c(F)cc3c(=O)c(C(=O)O)cn1c23 [Levofloxacin] | 34 mm | 32 mm | 32 mm | 27 mm | –
CC1(C)S[C@@H]2[C@H](NC(=O)[C@H](N)c3ccccc3)C(=O)N2[C@H]1C(=O)O [Ampicillin] | 17 mm | 0 mm | 19 mm | 18 mm | –
CNC(C)C1CCC(N)C(OC2C(N)CC(N)C(OC3OCC(C)(O)C(NC)C3O)C2O)O1 (stereo not shown) [Gentamicin] | 17 mm | 18 mm | 17 mm | 18 mm | –
CN(C)[C@@H]1C(O)=C(C(N)=O)C(=O)[C@@]2(O)C(O)=C3C(=O)c4c(O)cccc4[C@@](C)(O)[C@H]3C[C@@H]12 [Tetracycline] | 24 mm | 13 mm | 22 mm | 0 mm | –
O=C(N[C@H](CO)[C@H](O)c1ccc([N+](=O)[O-])cc1)C(Cl)Cl [Chloramphenicol] | 28 mm | 0 mm | 24 mm | 24 mm | –
NC[C@H]1O[C@H](O[C@H]2[C@H](O)[C@@H](O[C@H]3O[C@H](CO)[C@@H](O)[C@H](N)[C@H]3O)[C@H](N)C[C@@H]2N)[C@H](O)[C@@H](O)[C@@H]1O [Kanamycin] | 20 mm | 17 mm | 17 mm | 0 mm | –
CO/N=C(\C(=O)N[C@@H]1C(=O)N2C(C(=O)O)=C(CSc3nc(=O)c(O)nn3C)CS[C@H]12)c1csc(N)n1 [Ceftriaxo] | 30 mm | 28 mm | 26 mm | 26 mm | –
Cotrimoxazole | 29 mm | 24 mm | 25 mm | 0 mm | –
[H]/N=C(/N)N[C@H]1[C@H](O)[C@@H](O)[C@H](O[C@@H]2O[C@@H](C)[C@](O)(C=O)[C@H]2O[C@@H]2O[C@@H](CO)[C@H](O)[C@@H](O)[C@@H]2NC)[C@@H](N/C(N)=N\[H])[C@@H]1O [Streptomycin] | 0 mm | 0 mm | 12 mm | 13 mm | –
O=C(O)c1cn(C2CC2)c2cc(N3CCNCC3)c(F)cc2c1=O [Ciprofloxacin] | 37 mm | 30 mm | 30 mm | 25 mm | –
CCn1cc(C(=O)O)c(=O)c2ccc(C)nc21 [Nalidixic Acid] | 30 mm | 21 mm | 21 mm | 20 mm | –
NCC(=O)Nc1ccc(-n2nc(C(F)(F)F)cc2-c2ccc3c(ccc4ccccc43)c2)cc1 [AR-12, reference compound] | – | – | – | – | CC50 at 24 h ([5]; Table 1, RAW 264.7 viability reduced by 50%, MTT assay, 24 hr, 1–100 μM): 8000 nM; CC50 at 24 h ([5]; Table 2, RAW 264.7 viability 50%, colorimetric assay, extended up to 500 μM): 8300 nM; MIC50 ([6]; Table 1, planktonic susceptible S. Typhimurium viability 50% by optical density, 22 hr, read-out: MIC50): > 20 µM; MIC50 ([6]; Table 2, planktonic Salmonella, OD 600 nm, read-out: Susc. MIC50): > 20 µM; selectivity (selectivity indices) ([7]; LC50 / IC50, strain not specified): around 20; IC50 ([7]; RAW264.7, 22 h, Table 1, concentration at which intracellular susceptible S. Typhimurium burden is 50% in RAW 264.7 macrophages, 22 h treatment, read-out: IC50): 420 nM; IC50 ([7]; RAW264.7, Table 2, intracellular burden 50% in RAW 264.7, read-out: Susc. IC50): 400 nM; Selectivity ([7]; Table 1, LC50 / IC50, susceptible S. Typhimurium): 19.8; IC50 ([8]; Salmonella enterica, RAW264.7, Table 2, intracellular burden 50% in RAW 264.7): 340 nM; MDR Selectivity ([8]; Table 2, LC50 / IC50): 24.4; MIC50 [9]: > 20 µM
